Measurements from article PMC10176470, “Engaging a Non-catalytic Cysteine Residue Drives Potent and Selective Inhibition of Caspase-6” (Journal of the American Chemical Society, 2023).

Molecular target: proteins of HEK293T cells transiently overexpressing caspase-6 (Homo sapiens, UniProt P49591)
Type: cell-based
Conditions: exp_ref Probe; protein SARS (P49591); analysis C6

Sequence of proteins of HEK293T cells transiently overexpressing caspase-6 (P49591 whole entry, looked up): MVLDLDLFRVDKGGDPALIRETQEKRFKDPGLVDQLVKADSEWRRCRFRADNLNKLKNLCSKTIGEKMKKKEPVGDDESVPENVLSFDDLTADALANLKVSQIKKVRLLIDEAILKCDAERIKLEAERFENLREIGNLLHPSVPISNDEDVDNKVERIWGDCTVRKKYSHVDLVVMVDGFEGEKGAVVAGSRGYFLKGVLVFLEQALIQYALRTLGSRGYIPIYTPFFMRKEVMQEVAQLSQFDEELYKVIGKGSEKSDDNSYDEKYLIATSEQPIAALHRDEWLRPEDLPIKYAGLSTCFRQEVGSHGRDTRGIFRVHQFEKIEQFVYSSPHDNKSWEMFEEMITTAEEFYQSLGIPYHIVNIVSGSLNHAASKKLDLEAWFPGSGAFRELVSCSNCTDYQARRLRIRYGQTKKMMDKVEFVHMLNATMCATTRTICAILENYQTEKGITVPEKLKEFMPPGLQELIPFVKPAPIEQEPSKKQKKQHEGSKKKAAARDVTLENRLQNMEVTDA

C#CCOc1ccc([C@@H]2C[C@@H](C(=O)Nc3ccc(OC(F)(F)F)cc3)CN(S(=O)(=O)C=C)C2)cc1 (relative stereo) [13-t]
enrich.exp.med: 0.8697
